Laboratory results from patent publication US11993604B2, “Substituted pyrazolo[4,3-H]quinazolines as protein kinase inhibitors” (SHENGKE PHARMACEUTICALS (JIANGSU) LTD., priority 2017, dated 2024).

Columns and labels:
[1] = biological target: T1, recombinant CDK4/Cyclin D1 (Homo sapiens, UniProt P11802); experiment: Biochemical kinase inhibition test, CDK4/Cyclin D1 (32P-ATP, retinoblastoma protein substrate); settings: three-fold serial dilution from 10 μM; 10 μM ATP; read-out: CDK4/D1 (nM), enzyme inhibitory activity IC50
T1 construct: purchased Life Technologies PV4204

CDK6/cyclin D1 = CDK6/cyclin D1 (Homo sapiens, UniProt Q00534); experiment: Biochemical kinase inhibition test, CDK6/cyclin D1 (similar method); settings: for selectivity for CDK6/cyclin D1 relative to CDK4/cyclin D1 (enzyme inhibitory activity): CDK6/cyclin D1 versus CDK4/cyclin D1; for IC50: three-fold serial dilution from 10 μM, 10 μM ATP, read-out: CDK6/D1 (nM), enzyme inhibitory activity IC50
Protocol: Potency determination of biochemical kinase inhibition test. Kinase activity test and IC50 determination. Firstly, 10 ng of recombinant CDK4/Cyclin D1 (Life Technologies PV4204) was diluted in kinase buffer (20 mM Tris pH 7.5, 10 mM MgCl2, 0.01% NP-40, 2 mM DTT), and was incubated with inhibitors at the indicated concentration at room temperature for 30 minutes. The kinase reaction was initiated by adding […] (1.5 μM) of recombinant retinoblastoma protein, 5 μM ATP and 10μ Ci γ-32P-ATP. The reaction was incubated at 30° C. for 20 minutes, and was terminated by adding 2× Laemmli sample buffer, heated at 95° C. for three minutes, and the resulting solution was dissolved with 12% acrylamide SDS-PAGE and autoradiographed. A densitometer (Bio-Rad) was used to quantify the corresponding phosphorylated substrate protein bands. The resulting density values were plotted as a function of the log drug concentration using Prism 4 Graphpad software. IC50 values were determined by plotting a non-linear regression curve with a variable slope.
The inhibitory activity of the compounds disclosed herein against CDK6/cyclin D1 was tested by a similar method.
The compounds were tested in a three-fold serial dilution from the starting concentration of 10 μM, over 10-fold of IC50. The control compound, staurosporine, was tested in a four-fold serial dilution from the starting concentration of 20 μM, over 10-fold of IC50. These reactions took place in the presence of 10 μM ATP.

CDK6/cyclin D1, sequence (Q00534 whole entry, species assumed): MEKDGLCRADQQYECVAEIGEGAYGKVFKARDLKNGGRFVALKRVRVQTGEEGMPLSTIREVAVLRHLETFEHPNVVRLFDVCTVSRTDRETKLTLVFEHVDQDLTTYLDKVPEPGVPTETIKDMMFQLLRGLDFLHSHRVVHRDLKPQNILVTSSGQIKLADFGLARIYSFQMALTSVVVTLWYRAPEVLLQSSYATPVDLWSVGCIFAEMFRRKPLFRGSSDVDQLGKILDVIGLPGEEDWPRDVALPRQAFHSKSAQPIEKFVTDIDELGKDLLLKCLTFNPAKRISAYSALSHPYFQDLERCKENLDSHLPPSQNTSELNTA
CDK6/cyclin D1, sequence (P24385 whole entry partner, species assumed): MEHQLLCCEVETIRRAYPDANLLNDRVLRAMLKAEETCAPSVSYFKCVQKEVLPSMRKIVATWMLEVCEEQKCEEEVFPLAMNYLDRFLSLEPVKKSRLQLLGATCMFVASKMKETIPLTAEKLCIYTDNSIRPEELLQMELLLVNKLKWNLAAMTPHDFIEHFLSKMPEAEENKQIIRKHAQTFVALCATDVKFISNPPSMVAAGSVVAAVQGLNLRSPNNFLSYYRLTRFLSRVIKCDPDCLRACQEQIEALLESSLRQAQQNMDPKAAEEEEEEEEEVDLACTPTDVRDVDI
T1 sequence (P11802 whole entry): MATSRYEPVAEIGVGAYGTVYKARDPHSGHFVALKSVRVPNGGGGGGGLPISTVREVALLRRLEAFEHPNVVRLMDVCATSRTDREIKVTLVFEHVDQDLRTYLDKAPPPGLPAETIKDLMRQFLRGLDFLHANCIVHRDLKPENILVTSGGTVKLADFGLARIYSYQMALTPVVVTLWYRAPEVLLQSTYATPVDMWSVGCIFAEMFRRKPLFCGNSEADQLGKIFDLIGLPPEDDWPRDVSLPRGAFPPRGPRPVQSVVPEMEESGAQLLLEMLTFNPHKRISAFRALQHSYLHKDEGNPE
T1 sequence (P24385 whole entry partner): as the sequence (P24385 whole entry partner, species assumed) above

| SMILES | IC50 [1] [nM] | selectivity for CDK6/cyclin D1 relative to CDK4/cyclin D1 (enzyme inhibitory activity) (CDK6/cyclin D1) | IC50 (CDK6/cyclin D1) [nM] |
| --- | --- | --- | --- |
| CCN1CCN(c2ccc(Nc3ncc4ccc5cnn(C6CC6)c5c4n3)nc2)CC1 [Compound I-56] | 10 to 20 | about 3 times | 5 to 10 |
| CCN1CCN(c2cnc(Nc3ncc4ccc5cnn(C6CC6)c5c4n3)cc2C)CC1 [Compound I-57] | 10 to 20 | – | 10 to 20 |
| c1cc(Nc2ncc3ccc4cnn(C5CC5)c4c3n2)ncc1N1CCOCC1 [Compound I-58] | 10 to 20 | about 3 times | 5 to 10 |
| Cc1cc(Nc2ncc3ccc4cnn(C5CC5)c4c3n2)ncc1N1CCOCC1 [Compound I-59] | 10 to 20 | – | 10 to 20 |
| CC1CN(c2ccc(Nc3ncc4ccc5cnn(C6CC6)c5c4n3)nc2)CCO1 (stereo not shown) [Compound I-60] | 10 to 20 | – | 10 to 20 |
| CC(C)n1ncc2c(Br)cc3cnc(Nc4ccc(N5CCNCC5)cn4)nc3c21 [Compound I-61] | 10 to 20 | – | 10 to 20 |
| CC(C)n1ncc2c(Br)cc3cnc(Nc4cc(F)c(N5CCNCC5)cn4)nc3c21.Cl [Compound I-62] | 20 to 50 | about 2 times | 10 to 20 |
| CC(C)n1ncc2c(Br)cc3cnc(Nc4ccc(N5CCN(C)CC5)cn4)nc3c21 [Compound I-63] | 10 to 20 | – | 10 to 20 |
| CCN1CCN(c2ccc(Nc3ncc4cc(Br)c5cnn(C(C)C)c5c4n3)nc2)CC1 [Compound I-64] | 10 to 20 | – | 10 to 20 |
| CC(C)n1ncc2c(Br)cc3cnc(Nc4ccc(N5CCOCC5)cn4)nc3c21 [Compound I-65] | 10 to 20 | – | 10 to 20 |
| Cc1cc2cnc(Nc3ccc(N4CCNCC4)cn3)nc2c2c1cnn2C(C)C.Cl [Compound I-66] | 10 to 20 | about 3 times | 1 to 5 |
| Cc1cc2cnc(Nc3cc(F)c(N4CCNCC4)cn3)nc2c2c1cnn2C(C)C.Cl [Compound I-67] | 20 to 50 | about 2 times | 10 to 20 |
| Cc1cc2cnc(Nc3ccc(N4CCN(C)CC4)cn3)nc2c2c1cnn2C(C)C [Compound I-68] | 10 to 20 | – | 1 to 5 |
| CCN1CCN(c2ccc(Nc3ncc4cc(C)c5cnn(C(C)C)c5c4n3)nc2)CC1 [Compound I-69] | 10 to 20 | – | 1 to 5 |
| Cc1cc2cnc(Nc3ccc(N4CCOCC4)cn3)nc2c2c1cnn2C(C)C [Compound I-70] | 10 to 20 | – | 10 to 20 |
| CC(C)n1ncc2c(C#N)cc3cnc(Nc4ccc(N5CCNCC5)cn4)nc3c21.Cl [Compound I-71] | 10 to 20 | about 3 times | 1 to 5 |
| CC(C)n1ncc2c(C#N)cc3cnc(Nc4cc(F)c(N5CCNCC5)cn4)nc3c21.Cl [Compound I-72] | 20 to 50 | about 2 times | 10 to 20 |
| CCN1CCN(c2ccc(Nc3ncc4cc(C#N)c5cnn(C(C)C)c5c4n3)nc2)CC1 [Compound I-73] | 10 to 20 | about 3 times | 1 to 5 |
| CC(C)n1ncc2c(C#N)cc3cnc(Nc4ccc(N5CCOCC5)cn4)nc3c21 [Compound I-74] | 10 to 20 | about 3 times | 1 to 5 |
| CC(=O)c1cc2cnc(Nc3ccc(N4CCNCC4)cn3)nc2c2c1cnn2C(C)C [Compound I-75] | 1 to 5 | – | < 1 |
| CC(=O)c1cc2cnc(Nc3cc(F)c(N4CCNCC4)cn3)nc2c2c1cnn2C(C)C.Cl [Compound I-76] | 10 to 20 | about 2 times | 5 to 10 |
| CC(=O)c1cc2cnc(Nc3ccc(N4CCN(C)CC4)cn3)nc2c2c1cnn2C(C)C [Compound I-77] | 5 to 10 | – | < 1 |
| CCN1CCN(c2ccc(Nc3ncc4cc(C(C)=O)c5cnn(C(C)C)c5c4n3)nc2)CC1 [Compound I-78] | 1 to 5 | – | < 1 |
| CC(=O)c1cc2cnc(Nc3ccc(N4CCOCC4)cn3)nc2c2c1cnn2C(C)C [Compound I-79] | 5 to 10 | – | < 1 |
| COc1cc(OC)cc(-c2cc3cnc(Nc4ccc(N5CCNCC5)cn4)nc3c3c2cnn3C(C)C)c1.Cl [Compound I-80] | 5 to 10 | about 3 times | 1 to 5 |
| CCN1CCN(c2ccc(Nc3ncc4cc(-c5cc(OC)cc(OC)c5)c5cnn(C(C)C)c5c4n3)nc2)CC1 [Compound I-81] | 5 to 10 | about 3 times | 1 to 5 |
| COc1cc(OC)cc(-c2cc3cnc(Nc4ccc(N5CCOCC5)cn4)nc3c3c2cnn3C(C)C)c1 [Compound I-82] | 5 to 10 | about 3 times | 1 to 5 |
